Results from ChEMBL document CHEMBL3593172, “4-(N-Phenyl-N'-substituted benzenesulfonyl)-6-(4-hydroxyphenyl)quinolines as inhibitors of mammalian target of rapamycin” (Bioorg Med Chem, 2015).

What was measured:
HL-60 [1] = assay: Cytotoxicity against human HL60 cells assessed as growth inhibition at 10 uM after 24 to 48 hrs by MTT assay relative to control; type: functional; conditions: read-out: GI
HL-60 [2] = assay: Cytotoxicity against human HL60 cells assessed as growth inhibition at 30 uM after 24 to 48 hrs by MTT assay relative to control; type: functional; conditions: read-out: GI
HL-60 [3] = assay: Cytotoxicity against human HL60 cells assessed as growth inhibition at 100 uM after 24 to 48 hrs by MTT assay relative to control; type: functional; conditions: read-out: GI
[4] = Cytotoxicity against human MIAPaCa2 cells assessed as growth inhibition at 10 uM after 24 to 48 hrs by MTT assay relative to control; type: functional; conditions: MIA PaCa-2, read-out: GI
[5] = Cytotoxicity against human MIAPaCa2 cells assessed as growth inhibition at 30 uM after 24 to 48 hrs by MTT assay relative to control; type: functional; conditions: MIA PaCa-2, read-out: GI
[6] = Cytotoxicity against human MIAPaCa2 cells assessed as growth inhibition at 100 uM after 24 to 48 hrs by MTT assay relative to control; type: functional; conditions: MIA PaCa-2, read-out: GI
HCT-116 [7] = assay: Cytotoxicity against human HCT116 cells assessed as growth inhibition at 10 uM after 24 to 48 hrs by MTT assay relative to control; type: functional; conditions: read-out: GI
HCT-116 [8] = assay: Cytotoxicity against human HCT116 cells assessed as growth inhibition at 30 uM after 24 to 48 hrs by MTT assay relative to control; type: functional; conditions: read-out: GI
HCT-116 [9] = assay: Cytotoxicity against human HCT116 cells assessed as growth inhibition at 100 uM after 24 to 48 hrs by MTT assay relative to control; type: functional; conditions: read-out: GI
HepG2 [10] = assay: Cytotoxicity against human HepG2 cells assessed as growth inhibition at 10 uM after 24 to 48 hrs by MTT assay relative to control; type: functional; conditions: read-out: GI
HepG2 [11] = assay: Cytotoxicity against human HepG2 cells assessed as growth inhibition at 30 uM after 24 to 48 hrs by MTT assay relative to control; type: functional; conditions: read-out: GI
HepG2 [12] = assay: Cytotoxicity against human HepG2 cells assessed as growth inhibition at 100 uM after 24 to 48 hrs by MTT assay relative to control; type: functional; conditions: read-out: GI
PC-3 [13] = assay: Cytotoxicity against human PC3 cells assessed as growth inhibition at 10 uM after 24 to 48 hrs by MTT assay relative to control; type: functional; conditions: read-out: GI
PC-3 [14] = assay: Cytotoxicity against human PC3 cells assessed as growth inhibition at 30 uM after 24 to 48 hrs by MTT assay relative to control; type: functional; conditions: read-out: GI
PC-3 [15] = assay: Cytotoxicity against human PC3 cells assessed as growth inhibition at 100 uM after 24 to 48 hrs by MTT assay relative to control; type: functional; conditions: read-out: GI
HL-60 [16] = assay: cells; conditions: Homo sapiens, HL-60, 48 h
Description: Cytotoxicity against human HL60 cells assessed as inhibition of cell proliferation after 48 hrs by MTT assay

cells = conditions: Homo sapiens, MIA PaCa-2, 48 h
Description: Cytotoxicity against human MIAPaCa2 cells assessed as inhibition of cell proliferation after 48 hrs by MTT assay

HCT-116 [17] = assay: cells; conditions: Homo sapiens, HCT-116, 48 h
Description: Cytotoxicity against human HCT116 cells assessed as inhibition of cell proliferation after 48 hrs by MTT assay

HepG2 [18] = assay: cells; conditions: Homo sapiens, HepG2, 48 h
Description: Cytotoxicity against human HepG2 cells assessed as inhibition of cell proliferation after 48 hrs by MTT assay

PC-3 [19] = assay: cells; conditions: Homo sapiens, PC-3, 48 h
Description: Cytotoxicity against human PC3 cells assessed as inhibition of cell proliferation after 48 hrs by MTT assay

| IC50 (HL-60 [16]) [µM] | IC50 (cells) [µM] | IC50 (HCT-116 [17]) [µM] | IC50 (HepG2 [18]) [µM] | IC50 (PC-3 [19]) [µM] | Compound | inhibition of growth at 10 µM (HL-60 [1]) [%] | inhibition of growth at 30 µM (HL-60 [2]) [%] | inhibition of growth at 100 µM (HL-60 [3]) [%] | inhibition of growth at 10 µM [4] [%] | inhibition of growth at 30 µM [5] [%] | inhibition of growth at 100 µM [6] [%] | inhibition of growth at 10 µM (HCT-116 [7]) [%] | inhibition of growth at 30 µM (HCT-116 [8]) [%] | inhibition of growth at 100 µM (HCT-116 [9]) [%] | inhibition of growth at 10 µM (HepG2 [10]) [%] | inhibition of growth at 30 µM (HepG2 [11]) [%] | inhibition of growth at 100 µM (HepG2 [12]) [%] | inhibition of growth at 10 µM (PC-3 [13]) [%] | inhibition of growth at 30 µM (PC-3 [14]) [%] | inhibition of growth at 100 µM (PC-3 [15]) [%] |
| --- | --- | --- | --- | --- | --- | --- | --- | --- | --- | --- | --- | --- | --- | --- | --- | --- | --- | --- | --- | --- |
| 14 | 18 | 27 | 18 | 21 | Oc1ccc(-c2ccc3nccc(Nc4ccccc4)c3c2)cc1 | 41 | 65 | 82 | 28 | 91 | 93 | 8 | 53 | 86 | 8 | 53 | 86 | 27 | 74 | 90 |
| < 10 | < 10 | 31 | 18 | 44 | CC(C)(C)c1ccc(S(=O)(=O)N(c2ccccc2)c2ccnc3ccc(-c4ccc(O)cc4)cc23)cc1 | 76 | 89 | 93 | 79 | 85 | 90 | 20 | 35 | 83 | 14 | 89 | 98 | 21 | 45 | 70 |
| < 10 | < 10 | 70 | 12 | 65 | O=S(=O)(c1ccc2c(c1)OCCO2)N(c1ccccc1)c1ccnc2ccc(-c3ccc(O)cc3)cc12 | 87 | 90 | 90 | 79 | 84 | 86 | 17 | 26 | 68 | 46 | 87 | 88 | 27 | 38 | 62 |
| < 10 | < 10 | 53 | 19 | 45 | Cc1ccc(S(=O)(=O)N(c2ccccc2)c2ccnc3ccc(-c4ccc(O)cc4)cc23)cc1 | 78 | 90 | 92 | 80 | 88 | 89 | 21 | 34 | 82 | 13 | 90 | 97 | 20 | 43 | 72 |
| < 10 | < 10 | 16 | 19 | 11 | O=C(c1cccnc1Cl)N(c1ccccc1)c1ccnc2ccc(-c3ccc(O)cc3)cc12 | 92 | 94 | 95 | 69 | 89 | 89 | 29 | 88 | 89 | 19 | 87 | 88 | 47 | 90 | 90 |
| < 10 | 15 | 52 | 18 | 22 | O=C(c1ccccc1F)N(c1ccccc1)c1ccnc2ccc(-c3ccc(O)cc3)cc12 | 55 | 93 | 94 | 36 | 90 | 90 | 26 | 32 | 88 | 22 | 84 | 87 | 27 | 65 | 88 |

Second part, the compound before the results:

| Compound | IC50 (HL-60 [16]) [µM] | IC50 (cells) [µM] | IC50 (HCT-116 [17]) [µM] | IC50 (HepG2 [18]) [µM] | IC50 (PC-3 [19]) [µM] | inhibition of growth at 10 µM (HL-60 [1]) [%] | inhibition of growth at 30 µM (HL-60 [2]) [%] | inhibition of growth at 100 µM (HL-60 [3]) [%] | inhibition of growth at 10 µM [4] [%] | inhibition of growth at 30 µM [5] [%] | inhibition of growth at 100 µM [6] [%] | inhibition of growth at 10 µM (HCT-116 [7]) [%] | inhibition of growth at 30 µM (HCT-116 [8]) [%] | inhibition of growth at 100 µM (HCT-116 [9]) [%] | inhibition of growth at 10 µM (HepG2 [10]) [%] | inhibition of growth at 30 µM (HepG2 [11]) [%] | inhibition of growth at 100 µM (HepG2 [12]) [%] | inhibition of growth at 10 µM (PC-3 [13]) [%] | inhibition of growth at 30 µM (PC-3 [14]) [%] | inhibition of growth at 100 µM (PC-3 [15]) [%] |
| --- | --- | --- | --- | --- | --- | --- | --- | --- | --- | --- | --- | --- | --- | --- | --- | --- | --- | --- | --- | --- |
| COc1ccc(-c2ccc3nccc(Nc4ccccc4)c3c2)cc1 | 18 | 26 | 40 | > 100 | 39 | 32 | 69 | 91 | 42 | 53 | 55 | 16 | 45 | 77 | 19 | 30 | 36 | 40 | 46 | 71 |
| O=S(=O)(c1ccc(Br)cc1)N(c1ccccc1)c1ccnc2ccc(-c3ccc(O)cc3)cc12 | < 10 | 20 | 68 | 22 | > 100 | 69 | 88 | 87 | 27 | 76 | 81 | 9 | 23 | 73 | 1 | 73 | 80 | 15 | 28 | 25 |
| O=S(=O)(c1ccc(F)cc1)N(c1ccccc1)c1ccnc2ccc(-c3ccc(O)cc3)cc12 | 28 | 65 | 27 | 85 | 42 | 2 | 51 | 79 | 9 | 30 | 70 | 20 | 57 | 92 | 1 | 10 | 60 | 16 | 43 | 87 |
| O=S(=O)(c1ccc(F)cc1F)N(c1ccccc1)c1ccnc2ccc(-c3ccc(O)cc3)cc12 | < 10 | < 10 | 80 | < 10 | 25 | 87 | 88 | 89 | 80 | 84 | 87 | 2 | 20 | 58 | 87 | 89 | 90 | 26 | 61 | 73 |
| O=[N+]([O-])c1ccc(S(=O)(=O)N(c2ccccc2)c2ccnc3ccc(-c4ccc(O)cc4)cc23)cc1 | < 10 | 25 | 90 | 22 | > 100 | 86 | 87 | 89 | 21 | 59 | 81 | 2 | 4 | 58 | 8 | 76 | 84 | 4 | 30 | 47 |
